Laboratory results taken from patent publication US11673878B2, “Benzazepine derivatives” (OTSUKA PHARMACEUTICAL CO., LTD., priority 2017, dated 2023).

How the values were obtained:
[1] = Pharmacokinetics study in mice, single oral dose; format: in vivo; conditions: mouse; male ICR mice, single-dose oral administration of 30 mg/kg, plasma
Description: A pharmacokinetics (PK) study was performed using male ICR mice to compare the oral absorption properties of the present compounds with tolvaptan. A test compound was suspended in a 1% hydroxypropyl methylcellulose (HPMC) solution to be adjusted to the concentration of 4.5 mg/mL. The present compounds were used as the forms obtained in the above examples (including the amorphous form) for a test compound, or used after spray drying, if needed.
Male ICR mice (7-week old) were freely fed food and water and weighed on an electronic scale. Then, a test compound was orally administered at the dose of 30 mg/kg […]. After the oral administration, blood was collected from the abdominal vena cava under isoflurane anesthesia using a 1 mL heparinized syringe with a 26 G injection needle. Blood was separated by centrifugation at 4° C., 3000 rpm for 10 minutes to give plasma in a supernatant. The plasma concentration of a test compound was measured by LC-MS/MS.
The following PK parameters were calculated using the mean plasma concentrations of unchanged substances obtained from two animals at each time point.
Cmax: Maximum plasma concentration (μg/mL)
tmax: Time-to-maximum plasma concentration (h)
AUCinf: Area under the plasma concentration-time curve from administration to infinite time (μg h/mL)

[2] = target: T1, rat vasopressin V2 receptor (Rattus norvegicus, UniProt Q00788); assay: Binding inhibition test for rat V2 receptor (3H-AVP, rV2R-CHO cells); conditions: inhibition of 3H-AVP binding, 4° C., 2 hours, read-out: Binding affinity rV2 (IC50)
T1 construct: expressed in transfected cells; host or cells: CHO cells (rV2R-CHO)
Description: (§1) Various compounds were studied in binding affinities for vasopressin receptors with an indicator of binding inhibition of rat vasopressin V1a receptor and vasopressin V2 receptor of ^3H-arginine vasopressin (AVP) (NET800, available from PerkinElmer Inc., Life Sciences).
(2) Binding Inhibition Test for Rat V2 Receptor (rV2R)
Rat V2 receptor-expressed CHO cells (rV2R—CHO) were incubated on 10% FBS-containing DMEM/F12 in a 24-well plate, and each cell was washed with D-PBS twice. A reaction solution (D-PBS containing 0.1% BSA and 0.05% sodium azide) comprising a compound in various concentrations (0.3 nM to 100 nM) was added to each well, and a certain amount of ^3H-AVP was added thereto (100-fold dilution). Reactions were carried out at 4° C. for 2 hours on the plate. Then, each well was washed with D-PBS twice and 0.1N NaOH was added to each well. The cells were collected, and the radioactivity of ^3H-AVP was measured with a scintillation counter.
(§2) ^3H-AVP binding rate in the presence of a compound was calculated by the following equation. Binding rate (%)=(B−NSB)/(TB−NSB)×100 (B: Binding amount of ^3H-AVP in the presence of each compound, NSB: Binding amount of ^3H-AVP in the presence of 1 μM of unlabeled AVP, TB: Binding amount of ^3H-AVP in the absence of 1 μM of unlabeled AVP)

[3] = target: T2, rat vasopressin V1a receptor (Rattus norvegicus, UniProt P30560); assay: Binding inhibition test for rat V1a receptor (3H-AVP, rat hepatic membrane); conditions: inhibition of 3H-AVP binding, rat hepatic membrane V1a receptor fractions, 4° C., 2 hours; read-out: Binding affinity rV1a (IC50)
T2 construct: V1a receptor fractions derived from rat hepatic membrane; from tissue; host or cells: rat liver (hepatic membrane)
Description: as §1
(1) Binding Inhibition Test for Rat V1a Receptor (rV1aR)
50 μg of V1a receptor fractions derived from rat hepatic membrane were diluted with a reaction solution (100 mM Tris-HCl (pH 8.0), 0.1% BSA, 5 mM MgCl2, 1 mM EDTA) and added to each well of a 96-well plate. A compound was added to each well in various concentrations (0.3 nM to 100 nM), and ^3H-AVP was added thereto in the range of 1 nM to 3 nM. Reactions were carried out at 4° C. for 2 hours on the plate. Via receptor fractions were collected with a 96-well glass filter (Unifilter GF/B) after the reactions and washed with a washing solution (10 mM Tris-HCl (pH 8.0), 5 mM MgCl2, 1 mM EDTA) three times, and then the radioactivity of ^3H-AVP was measured with a scintillation counter.
as §2

[4] = Metabolic stability test in human liver microsomes; format: in vitro ADME; conditions: pH 7.4; human liver microsomes 1 mg/mL, test compound 1 μmol/L, NADPH and NADH, 37° C., n = 4; read-out: CLint (μL/min/mg) mean ± SD
Description: Reaction System and Incubation
According to methods of Obach and Jones, et al. (methods described in R. S. Obach, Drug Metab. Dispos. 1999 (27): 1350-1359 and H. Jones and J. B. Houston, Drug Metab. Dispos. 2004 (32): 973-982), the reaction system shown below was prepared and metabolic stabilities of test compounds (the present compounds and, tolvaptan) were evaluated using the reaction system shown below. Human liver microsomes purchased from Corning Inc. were used. Test compounds were dissolved in DMSO at the concentration of 10 mmol/L and then diluted with acetonitrile to prepare a 100 μmol/L solution for use in the test. The 100 μmol/L solutions were used in the experiment.
Human liver microsome 1 mg/mL
Co-factor (NADPH and NADH) 1 mmol/L each
Magnesium chloride 5 mmol/L
100 mmol/L Potassium phosphate buffer (pH 7.4)
The reaction mixture without co-factors was pre-incubated at 37° C. for 5 minutes, and then the reaction was initiated by the addition of the co-factors. The mixture was incubated for 0, 5, 10, 20, 30, and 60 minutes after the addition of the co-factors. An aliquot of the reaction mixture was removed and added to a methanol solution containing an internal standard (IS) and mixed to terminate the reaction at each predetermined time.
After the reaction was terminated, the mixture was separated by centrifugation and the supernatant was injected into a liquid chromatograph-tandem mass spectrometer (LC-MS/MS) to measure unchanged substances remained in the reaction system. The mass spectrometer was operated in a positive ion mode of the electrospray ionization (ESI) method. Unchanged substances and the IS were detected by multiple reaction monitoring (MRM) transitions using selected precursor and product ions set.
The remaining ratios of test compounds were calculated by the following equation. Remaining ratio=(Peak area ratio of a test compound to IS at t minutes after incubation)÷(Peak area ratio of a test compound to IS at 0 minute)
The slope of X-axis (the incubation time) and Y-axis (logarithm of the remaining ratio) was calculated by a non-linear least square method. Hepatic intrinsic clearance (CLint) was calculated by the following equation. CLint(μL/min/mg)=−(Slope(min^−1))÷1(mg/mL)×1000

T2 sequence (P30560 whole entry): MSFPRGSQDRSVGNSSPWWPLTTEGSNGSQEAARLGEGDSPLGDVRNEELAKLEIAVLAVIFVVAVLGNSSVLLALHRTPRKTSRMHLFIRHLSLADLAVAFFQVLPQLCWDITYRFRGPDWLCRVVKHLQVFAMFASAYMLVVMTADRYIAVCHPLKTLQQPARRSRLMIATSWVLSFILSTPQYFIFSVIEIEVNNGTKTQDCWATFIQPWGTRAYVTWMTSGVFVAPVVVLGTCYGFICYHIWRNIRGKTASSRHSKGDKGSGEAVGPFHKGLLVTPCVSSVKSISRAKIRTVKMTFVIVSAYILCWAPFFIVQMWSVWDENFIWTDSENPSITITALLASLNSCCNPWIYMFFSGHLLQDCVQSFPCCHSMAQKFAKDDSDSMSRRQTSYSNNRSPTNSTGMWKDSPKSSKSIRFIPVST
T1 sequence (Q00788 whole entry): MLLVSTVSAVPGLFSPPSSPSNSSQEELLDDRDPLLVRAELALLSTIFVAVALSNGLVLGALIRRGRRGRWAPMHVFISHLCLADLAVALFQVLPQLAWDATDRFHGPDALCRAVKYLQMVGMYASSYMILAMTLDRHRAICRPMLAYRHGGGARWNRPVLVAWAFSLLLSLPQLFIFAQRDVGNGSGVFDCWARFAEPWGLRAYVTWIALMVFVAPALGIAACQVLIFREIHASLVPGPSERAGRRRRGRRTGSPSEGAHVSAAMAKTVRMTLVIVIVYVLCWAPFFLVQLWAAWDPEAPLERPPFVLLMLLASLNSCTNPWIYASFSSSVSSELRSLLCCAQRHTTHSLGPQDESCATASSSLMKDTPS

| Compound | AUC(0-inf) [1] [ng·h/mL] | Cmax [1] [ng/mL] | Tmax [1] [h] | IC50 [2] [nM] | IC50 [3] [nM] | microsomal CLint at 1 μmol/L [4] [µL/min/mg] |
| --- | --- | --- | --- | --- | --- | --- |
| O=C(Nc1ccc(C(=O)N2CCC(F)(F)C(O)(CO)c3cc(Cl)ccc32)cn1)c1ccccc1C(F)(F)F (stereo not shown) [Example 2, N-{5-[7-chloro-4,4-difluoro-5-hydroxy-5-(hydroxymethyl)-2,3,4,5-tetrahydro-1H-1-benzazepine-1-carbonyl]pyridin-2-yl}-2-(trifluoromethyl)benzamide] | 95700 | 9230 | 1 | 2.1 | 3.4 | < 4 |
| O=C(Nc1ccc(C(=O)N2CCC(F)(F)C(O)(CO)c3cc(Cl)ccc32)cn1)c1cc(F)ccc1Cl (stereo not shown) [Example 3, 2-chloro-N-{5-[7-chloro-4,4-difluoro-5-hydroxy-5-(hydroxymethyl)-2,3,4,5-tetrahydro-1H-1-benzazepine-1-carbonyl]pyridin-2-yl}-5-fluorobenzamide] | 38900 | 4820 | 1 | 2.1 | 9.5 | < 4 |
| O=C(Nc1ccc(C(=O)N2CCC(F)(F)[C@](O)(CO)c3cc(Cl)ccc32)cn1)c1cc(F)ccc1Cl [Example 15, 2-chloro-N-{5-[(5R)-7-chloro-4,4-difluoro-5-hydroxy-5-(hydroxymethyl)-2,3,4,5-tetrahydro-1H-1-benzazepine-1-carbonyl]pyridin-2-yl}-5-fluorobenzamide] | 63100 | 6180 | 1 | 1 | 2.9 | < 4 |
| O=C(Nc1ccc(C(=O)N2CCC(F)(F)[C@](O)(CO)c3cc(Cl)ccc32)cc1)c1cc(F)ccc1Cl [Example 23, 2-chloro-N-{4-[(5R)-7-chloro-4,4-difluoro-5-hydroxy-5-(hydroxymethyl)-2,3,4,5-tetrahydro-1H-1-benzazepine-1-carbonyl]phenyl}-5-fluorobenzamide] | 71300 | 5420 | 4 | 1 | 2.6 | 1.11 ± 2.21 |
| O=C(Nc1ccc(C(=O)N2CCC(F)(F)[C@](O)(CO)c3cc(Cl)ccc32)cc1F)c1cc(F)ccc1Cl [Example 24, 2-chloro-N-{4-[(5R)-7-chloro-4,4-difluoro-5-hydroxy-5-(hydroxymethyl)-2,3,4,5-tetrahydro-1H-1-benzazepine-1-carbonyl]-2-fluorophenyl}-5-fluorobenzamide] | 44000 | 4080 | 4 | 1.5 | 2.7 | < 4 |
| O=C(Nc1ccc(C(=O)N2CCC(F)(F)[C@](O)(CO)c3cc(Cl)ccc32)cn1)c1ccc(Cl)cc1Cl [Example 51, 2,4-dichloro-N-{5-[(5R)-7-chloro-4,4-difluoro-5-hydroxy-5-(hydroxymethyl)-2,3,4,5-tetrahydro-1H-1-benzazepine-1-carbonyl]pyridin-2-yl}benzamide] | 53800 | 5070 | 1 | 1.7 | 16.1 | < 4 |
| O=C(Nc1ccc(C(=O)N2CCC(F)(F)[C@](O)(CO)c3cc(Cl)ccc32)cn1)c1cc(F)c(Cl)cc1Cl [Example 52, 2,4-dichloro-N-{5-[(5R)-7-chloro-4,4-difluoro-5-hydroxy-5-(hydroxymethyl)-2,3,4,5-tetrahydro-1H-1-benzazepine-1-carbonyl]pyridin-2-yl}-5-fluorobenzamide] | 62700 | 5570 | 1 | 3 | 8.8 | < 4 |
| COc1cc(C(=O)N2CCC(F)(F)[C@](O)(CO)c3cc(Cl)ccc32)ccc1NC(=O)c1ccc(F)cc1Cl [Example 58, 2-chloro-N-{4-[(5R)-7-chloro-4,4-difluoro-5-hydroxy-5-(hydroxymethyl)-2,3,4,5-tetrahydro-1H-1-benzazepine-1-carbonyl]-2-methoxyphenyl}-4-fluorobenzamide] | 44900 | 5890 | 1 | 1.3 | 9.3 | 1.81 ± 2.1 |
| O=C(Nc1ccc(C(=O)N2CCC(F)(F)[C@](O)(CO)c3cc(Cl)ccc32)cn1)c1ccccc1-c1ccccc1 [Example 63, N-{5-[(5R)-7-chloro-4,4-difluoro-5-hydroxy-5-(hydroxymethyl)-2,3,4,5-tetrahydro-1H-1-benzazepine-1-carbonyl]pyridin-2-yl}-[1,1′-biphenyl]-2-carboxamide] | 14400 | 4440 | 1 | 1.1 | 1.4 | 3.1 ± 3.58 |
| O=C(Nc1ccc(C(=O)N2CCC(F)(F)[C@](O)(CO)c3cc(Cl)ccc32)cn1)c1cccnc1C(F)(F)F [Example 66, N-{5-[(5R)-7-chloro-4,4-difluoro-5-hydroxy-5-(hydroxymethyl)-2,3,4,5-tetrahydro-1H-1-benzazepine-1-carbonyl]pyridin-2-yl}-2-(trifluoromethyl)pyridine-3-carboxamide] | 38300 | 4550 | 1 | 3.5 | 21.1 | < 4 |
| O=C(Nc1ccc(C(=O)N2CCC(F)(F)[C@](O)(CO)c3cc(Cl)ccc32)cn1)c1cc(F)ccc1-c1ccccc1 [Example 96, N-{5-[(5R)-7-chloro-4,4-difluoro-5-hydroxy-5-(hydroxymethyl)-2,3,4,5-tetrahydro-1H-1-benzazepine-1-carbonyl]pyridin-2-yl}-4-fluoro-[1,1′-biphenyl]-2-carboxamide] | 43000 | 5550 | 4 | 5 | 2 | 0.953 ± 1.91 |
| Cc1ccccc1C(=O)Nc1ccc(C(=O)N2CCCC(O)c3cc(Cl)ccc32)c(C)c1 (stereo not shown) [Tolvaptan, reference compound] | 1780 | 682 | 1 |  |  | 105 ± 11 |
